Where a name gives a salt, the structure may show the parent alone.
Columns and labels:
[1] = biological target: T1, human Endothelial Differentiation Gene 1 (EDG1) (Homo sapiens, UniProt P21453); assay: S1P1 Tango assay, 384 well format; type: cell-based; settings: EDG1-bla/U2OS cells
T1 construct: TEV protease cleavage site; Gal4-VP16 transcription factor (printed Ga14-VP16); expressed in transfected cells; host or cells: Tango GPCR-bla U2OS parental cell line (EDG1-bla/U2OS)
Method: S1P1 Tango Assay—384 Well Format
Recombinant EDG1-bla/U2OS cells (contain the human Endothelial Differentiation Gene 1 (EDG1) linked to a TEV protease site and a Ga14-VP16 transcription factor stably integrated into the Tango GPCR-bla U20S parental cell line) were harvested from growth medium and passaged into assay medium (Invitrogen Freestyle Expression Medium). The cells were starved for 24 hours at 37° C., 5% CO2, harvested and resuspended in assay medium at a density of ˜200,000 cells/ml. All test compounds were dissolved in DMSO at a concentration of 10 mM and were prepared in 100% DMSO to provide 10 point dose response curves. Test compounds prepared by Bravo (Velocity11) were added to wells in columns 2-11 and 13-22; DMSO was added to wells in columns 12 and 23 as unstimulated controls and assay medium was added to wells in columns 1 and 24 as cell-free controls. […]
10 μl of 6× substrate mixture (LiveBLAzer™-FRET B/G substrate (CCF4-AM) Cat # K1096 from Invitrogen, Inc.) was added to each well using Bravo and the plates incubated at room temperature for 2 h in the dark. The plate was finally read on EnVision using one excitation channel (409 nm) and two emission channels (460 nm and 530 nm).
The blue/green emission ratio (460 nm/530 nm) was calculated for each well, by dividing the background-subtracted Blue emission values by the background-subtracted Green emission values. […]

[2] = biological target: T2, human Endothelial Differentiation G-protein Coupled Receptor 3 (EDG3) (Homo sapiens, UniProt Q99500); assay: S1P3 GeneBlazer assay; type: cell-based; settings: EDG3-Ga15-NFAT-bla HEK 293T cells
T2 construct: expressed in transfected cells; host or cells: GeneBLAzer Ga15-NFAT-bla HEK 293T cell line
Method: GeneBLAzer EDG3-Ga15-NFAT-bla HEK 293T cells (contain the human Endothelial Differentiation G-protein Coupled Receptor 3 (EDG3) and a beta-lactamase reporter gene under control of a NFAT response element and a promiscuous G Protein, Ga15, stably integrated into the GeneBLAzer Ga15-NFAT-bla HEK 293T cell line) were suspended in assay medium (99% DMEM, 1% Dialyzed FBS, 0.1 mM NEAA, 25 mM HEPES (pH 7.3), 100 U/ml penicillin, 100 μg/ml streptomycin) at a density of 312, 500 cells/ml. Add 100 μl/well of the assay medium to the cell-free control wells (column 12) and 100 μl/well of the cell suspension to the test compound wells (row 2-8, column 1-10), the unstimulated control wells (DMSO) (column 11), and stimulated control wells (S1P) (row 1, column 1-10) in a Corning black-well, clear bottom 96-well plate. Cells were incubated at 37° C., 5% CO2 for 24 h. […]
After incubation at 37° C., 5% CO2 for 5 h, 25 μl of 6× substrate mixture (6 μl Solution A (1 mg LiveBLAzer™-FRET B/G Substrate (CCF4-AM) in 912 μl DMSO) plus 60 μl Solution B plus 934 μl Solution C) was added to each well and incubate at room temperature for 2 h in dark. The plate was finally read on EnVision for two emission channels (460 nm and 530 nm). […]

[3] = system: circulating lymphocytes; settings: animals and man; cited from earlier work
[4] = clinical studies, first 24 hours of treatment; cited from earlier work
[5] = biological target: T3, S1P1 receptor (S1P1 expressing RH7777 membranes) (Homo sapiens, UniProt P21453); assay: S1P1 GTPγS assay; type: biochemical; settings: tested in one of the above S1P1 assays (two GTPγS formats)
T3 construct: expressed in transfected cells; host or cells: RH7777 cells (membranes)
In short: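 Membranes from RH7777 cells expressing human S1P1 (1.5 μg/well) precoupled 30 min on ice to WGA SPA beads in 20 mM HEPES pH 7.4, 10 mM MgCl2, 100 mM NaCl, with 10 μM GDP and 90 μg/ml saponin. [35S]-GTPγS 0.5 nM final added with compound; SPA signal read immediately.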

[6] = biological target: T4, S1P1 (PathHunter CHO-K1 EDG1 β-Arrestin cell line) (Homo sapiens, UniProt P21453); assay: S1P-1 β-Arrestin recruitment assay; type: cell-based; settings: CHO-K1 EDG1 β-Arrestin cells, chemi-luminescence
T4 construct: host or cells: PathHunter CHO-K1 EDG1 β-Arrestin cell line
In short: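 CHO-K1 cells expressing S1P1 and β-arrestin 2 fused to complementing β-galactosidase fragments, at 1×10^4 cells/well in pH 7.4 buffer with 0.1% BSA. Compound exposure 90 min at 37 °C then 15 min room temperature; chemiluminescent substrate added for 60 min before luminescence read.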

T1 sequence (P21453 whole entry, the tested form may be a part): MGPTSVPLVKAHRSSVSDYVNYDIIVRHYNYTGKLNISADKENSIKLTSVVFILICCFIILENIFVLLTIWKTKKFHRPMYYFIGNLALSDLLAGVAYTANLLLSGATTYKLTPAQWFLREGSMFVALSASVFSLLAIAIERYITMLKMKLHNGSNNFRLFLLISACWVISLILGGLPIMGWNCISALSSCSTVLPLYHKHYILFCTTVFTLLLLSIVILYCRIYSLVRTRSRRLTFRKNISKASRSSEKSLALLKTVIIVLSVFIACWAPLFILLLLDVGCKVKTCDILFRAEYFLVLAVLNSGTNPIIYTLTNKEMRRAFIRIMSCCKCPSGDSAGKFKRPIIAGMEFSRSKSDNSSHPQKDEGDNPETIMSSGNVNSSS
T2 sequence (Q99500 whole entry): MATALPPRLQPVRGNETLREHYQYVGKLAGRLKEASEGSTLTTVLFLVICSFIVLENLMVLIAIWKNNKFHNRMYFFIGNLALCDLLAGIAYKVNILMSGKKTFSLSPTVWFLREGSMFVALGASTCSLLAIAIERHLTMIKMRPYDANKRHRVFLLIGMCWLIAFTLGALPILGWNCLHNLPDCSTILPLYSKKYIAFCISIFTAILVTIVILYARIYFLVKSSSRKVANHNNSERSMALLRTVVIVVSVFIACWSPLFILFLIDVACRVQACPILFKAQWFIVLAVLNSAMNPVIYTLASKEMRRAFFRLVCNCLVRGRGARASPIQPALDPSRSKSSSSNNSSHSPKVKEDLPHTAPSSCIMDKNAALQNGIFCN
T3 sequence (P21453 whole entry): as the sequence (P21453 whole entry, the tested form may be a part) above
T4 sequence (P21453 whole entry): as the sequence (P21453 whole entry, the tested form may be a part) above
T4 sequence (P32121 whole entry partner): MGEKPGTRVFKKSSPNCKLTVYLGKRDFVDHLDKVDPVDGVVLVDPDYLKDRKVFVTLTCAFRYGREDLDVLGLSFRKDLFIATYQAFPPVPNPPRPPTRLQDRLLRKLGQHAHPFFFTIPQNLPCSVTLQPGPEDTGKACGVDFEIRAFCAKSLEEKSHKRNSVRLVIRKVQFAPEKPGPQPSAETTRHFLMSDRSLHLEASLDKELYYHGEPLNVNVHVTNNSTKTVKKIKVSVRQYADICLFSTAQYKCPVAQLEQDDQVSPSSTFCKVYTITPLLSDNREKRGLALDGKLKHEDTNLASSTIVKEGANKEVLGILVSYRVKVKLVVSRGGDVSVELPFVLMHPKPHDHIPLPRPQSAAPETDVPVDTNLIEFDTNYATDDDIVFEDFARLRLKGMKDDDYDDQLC

EC50 [1] [nM] | EC50 [2] [nM] | SMILES | other results
< 1000 | > 10000 | CCc1c(-c2cnc(-c3ccc(OC(C)C)c(C#N)c3)s2)ccc2c1CCN(C(CO)CO)C2 [Example 204, 5-(5-{5-ethyl-2-[2-hydroxy-1-(hydroxymethyl)ethyl]-1,2,3,4-tetrahydro-6-isoquinolinyl}-1,3-thiazol-2-yl)-2-[(1-methylethyl)oxy]benzonitrile] | 
 |  | CCCCCCCCc1ccc(CCC(N)(CO)CO)cc1 [FTY720] | circulating lymphocytes [3]: reduce circulating lymphocytes in animals and man; bradycardia [4]: bradycardia in the first 24 hours of treatment
< 100 | > 10000 | CCc1c(-c2nnc(-c3ccc(OC(C)C)c(C#N)c3)s2)ccc2c1CCN(C(CO)CO)C2 [Example 205, 5-(5-{5-ethyl-2-[2-hydroxy-1-(hydroxymethyl)ethyl]-1,2,3,4-tetrahydro-6-isoquinolinyl}-1,3,4-thiadiazol-2-yl)-2-[(1-methylethyl)oxy]benzonitrile] | 
 |  | Cc1c(-c2noc(-c3ccc(OC(C)C)c(C#N)c3)n2)ccc2c1CCN(C[C@H](O)CO)CC2 [Example 153, 5-(3-{3-[(2S)-2,3-dihydroxypropyl]-6-methyl-2,3,4,5-tetrahydro-1H-3-benzazepin-7-yl}-1,2,4-oxadiazol-5-yl)-2-[(1-methylethyl)oxy]benzonitrile hydrochloride] | EC50 [5]: ≤ 100 nM; EC50 [6]: ≤ 100 nM
